This passage reports MIC results from patent US5696096A, “Pradimicin derivatives” (Bristol-Myers Squibb Company, priority 1990, dated 1997).

Converted amounts (≈) assume the structure as drawn.

Common to all, as to test: In vitro antifungal activity (MIC), serial agar dilution method
Format in all cases: cell-based
Holding throughout (details): Sabouraud dextrose agar, 40 hours at 28° C.
(In general: In agar dilution the substance is mixed into plates at graded concentrations.)

One assay deals with Aspergillus fumigatus. The method, then:
(§1) Antifungal activities of representative compounds of the present invention were evaluated in vitro. The minimum inhibitory concentrations (MICs) against various fungi were determined by serial agar dilution method using Sabouraud dextrose agar. Thus, approximately 0.003 ml of fungal suspension containing 10^6 cells/ml was applied to the surface of agar plates containing the test antibiotics. The MIC values recorded after the cultures had been incubated for 40 hours at 28° C. are set forth below in Table 1.

The subject of the next assay is Candida albicans. The method, then: as §1
The test system of the next assay is Cryptococcus neoformans. The method, then: as §1
Assay [1] deals with Trichophyton mentagrophytes. As for the experimental part:
as §1

For `CN[C@@H]1[C@H](O[C@H]2OC[C@H](O)[C@@H](O)[C@@H]2O)[C@@H](O)[C@H](O[C@H]2c3cc(C)c(C(=O)N[C@H](C)C(=O)O)c(O)c3-c3c(cc4c(c3O)C(=O)c3cc(OC)cc(O)c3C4=O)[C@@H]2O)O[C@@H]1C` [Example 1, 3'-O-(β-L-xylopyranosyl)pradimicin B], the MIC (usually the least concentration at which growth counts as inhibited) is > 100 µg/mL against Aspergillus fumigatus, 50 µg/mL (≈ 59.5 µM) with Candida albicans, 1.6 µg/mL (≈ 1.9 µM) with Cryptococcus neoformans and > 100 µg/mL in assay [1].

As for `CN[C@@H]1[C@H](O[C@@H]2OC[C@@H](O)[C@@H](O)[C@H]2O)[C@@H](O)[C@H](O[C@H]2c3cc(C)c(C(=O)N[C@H](C)C(=O)O)c(O)c3-c3c(cc4c(c3O)C(=O)c3cc(OC)cc(O)c3C4=O)[C@@H]2O)O[C@@H]1C` [Example 2, 3'-O-(β-D-Ribopyranosyl)-pradimicin B], the MIC against Aspergillus fumigatus is 12.5 µg/mL (≈ 14.9 µM); with Candida albicans it was > 25 µg/mL; in the assay with Cryptococcus neoformans it was 1.6 µg/mL (≈ 1.9 µM); in assay [1], 25 µg/mL (≈ 29.7 µM).

For the compound `CN[C@@H]1[C@H](O[C@@H]2OC[C@H](O)[C@H](O)[C@H]2O)[C@@H](O)[C@H](O[C@H]2c3cc(C)c(C(=O)N[C@H](C)C(=O)O)c(O)c3-c3c(cc4c(c3O)C(=O)c3cc(OC)cc(O)c3C4=O)[C@@H]2O)O[C@@H]1C` [Example 3, 3'-O-(α-L-Arabinopyranosyl)pradimicin B], the minimal inhibitory concentration (MIC) in the assay on Aspergillus fumigatus came out at 6.3 µg/mL (≈ 7.49 µM); in the assay on Candida albicans, 6.3 µg/mL (≈ 7.49 µM); in the assay with Cryptococcus neoformans, 1.6 µg/mL (≈ 1.9 µM); in assay [1] it was 6.3 µg/mL (≈ 7.49 µM).

Turning to `CN[C@@H]1[C@H](O[C@@H]2O[C@H](C)[C@@H](O)[C@H](O)[C@H]2O)[C@@H](O)[C@H](O[C@H]2c3cc(C)c(C(=O)N[C@H](C)C(=O)O)c(O)c3-c3c(cc4c(c3O)C(=O)c3cc(OC)cc(O)c3C4=O)[C@@H]2O)O[C@@H]1C` [Example 4, 3'-O-(6-Deoxy-β-D-glucopyranosyl)pradimicin B], the MIC in the assay with Aspergillus fumigatus amounted to 3.1 µg/mL (≈ 3.63 µM); against Candida albicans, 25 µg/mL (≈ 29.2 µM); against Cryptococcus neoformans, 1.6 µg/mL (≈ 1.87 µM); in assay [1], 1.6 µg/mL (≈ 1.87 µM).

Turning to `CN[C@@H]1[C@H](O[C@@H]2O[C@H](C)[C@H](O)[C@H](O)[C@H]2O)[C@@H](O)[C@H](O[C@H]2c3cc(C)c(C(=O)N[C@H](C)C(=O)O)c(O)c3-c3c(cc4c(c3O)C(=O)c3cc(OC)cc(O)c3C4=O)[C@@H]2O)O[C@@H]1C` [Example 5, 3'-O-(β-D-Fucopyranosyl)pradimicin B], the MIC against Aspergillus fumigatus was determined as 3.1 µg/mL (≈ 3.63 µM); with Candida albicans it was 6.3 µg/mL (≈ 7.37 µM); against Cryptococcus neoformans it was 1.6 µg/mL (≈ 1.87 µM); in assay [1] it was 1.6 µg/mL (≈ 1.87 µM).

With `CN[C@@H]1[C@H](O[C@@H]2O[C@H](CO)[C@@H](O)[C@H](O)[C@H]2O)[C@@H](O)[C@H](O[C@H]2c3cc(C)c(C(=O)N[C@H](C)C(=O)O)c(O)c3-c3c(cc4c(c3O)C(=O)c3cc(OC)cc(O)c3C4=O)[C@@H]2O)O[C@@H]1C` [Example 6, 3'-O-β-D-glucopyranosylpradimicin B], the minimum inhibitory concentration (MIC) came out at 3.1 µg/mL (≈ 3.56 µM) in the assay with Aspergillus fumigatus, 12.5 µg/mL (≈ 14.4 µM) against Candida albicans, 1.6 µg/mL (≈ 1.84 µM) in the assay on Cryptococcus neoformans and 3.1 µg/mL (≈ 3.56 µM) in assay [1].

Turning to `CN[C@@H]1[C@H](O[C@@H]2OC[C@@H](O)[C@H](O)[C@H]2O)[C@@H](O)[C@H](O[C@H]2c3cc(C)c(C(=O)N[C@H](C)C(=O)O)c(O)c3-c3c(cc4c(c3O)C(=O)c3cc(OC)cc(O)c3C4=O)[C@@H]2O)O[C@@H]1C` [Pradimicin A, reference compound], the MIC in the assay on Aspergillus fumigatus worked out at 1.6 µg/mL (≈ 1.9 µM); in the assay with Candida albicans, 50 µg/mL (≈ 59.5 µM); in the assay on Cryptococcus neoformans, 0.8 µg/mL (≈ 0.951 µM); in assay [1], 1.6 µg/mL (≈ 1.9 µM).

Take `CN[C@@H]1[C@H](O)[C@@H](O)[C@H](O[C@H]2c3cc(C)c(C(=O)N[C@H](C)C(=O)O)c(O)c3-c3c(cc4c(c3O)C(=O)c3cc(OC)cc(O)c3C4=O)[C@@H]2O)O[C@@H]1C` [Pradimicin B, reference compound]: the MIC in the assay on Aspergillus fumigatus worked out at 6.3 µg/mL (≈ 8.89 µM); with Candida albicans, 3.1 µg/mL (≈ 4.37 µM); with Cryptococcus neoformans it was 0.8 µg/mL (≈ 1.13 µM); in assay [1] it was 6.3 µg/mL (≈ 8.89 µM).
